From ChEMBL document CHEMBL5537204, “Identifying Marine-Derived Tanzawaic Acid Derivatives as Novel Inhibitors against Osteoclastogenesis and Osteoporosis via Downregulation of NF-κB and NFATc1 Activation” (J Med Chem, 2024)
Active and inactive are the calls of the source. The calls are words filed in the database; no cut-off is given here.

What was measured:
RAW264.7 [1] = experiment: Inhibition of LPS-induced NF-kappaB activation in mouse RAW264.7 cells expressing luciferase gene at 20 uM preincubated with compound for 30 mins followed by LPS-induction and measured after 6 hrs by luciferase reporter gene assay; assay type: cell-based; details: time 6.5 hrs
BMMC [2] = experiment: Cytotoxicity against mouse BMMC cells assessed as reduction in cell viability at 10 uM incubated for 4 days by MTT assay; assay type: toxicity, cell-based; details: 96 h, time 4 day
[3] = Toxicity in C57BL/6 mouse assessed as abnormal behavior at 5 to 10 mg/kg, IG administered every 3 days for 46 days; assay type: organism-based; details: in vivo, po, 1104 h, dose 5-10 mg/kg, time 46 day
BMMC [4] = experiment: Anti-osteoclastogenesis activity in RANKL-induced C57BL/6 mouse BMMC cells assessed as inhibition of TRAP mRNA expression pretreated with compound for 4 hrs followed by RANKL-induction and measured after 24 hrs by RT-PCR analysis; assay type: functional, cell-based; details: dose 1-10 µM, time 28.0 hrs
RAW264.7 [5] = experiment: Inhibition of RANKL-induced NF-kappaB activation in mouse RAW264.7 cells expressing luciferase gene preincubated with compound for 4 hrs followed by LPS-induction and measured after 6 hrs by luciferase reporter gene assay; assay type: cell-based; details: dose 1-10 µM, time 10.0 hrs
BMMC [6] = experiment: Anti-osteoclastogenesis activity in C57BL/6 mouse BMMC cells assessed as reduction in RANKL-induced osteoclasts formation incubated for 4 days in presence of MCSF by TRAP staining based assay; assay type: functional, cell-based; details: dose 1-10 µM, time 4.0 day
BMMC [7] = experiment: Anti-osteoporosis activity in C57BL/6 mouse BMMC cells assessed as reduction in RANKL-induced osteoclasts formation at 10 uM incubated for 4 days in presence of MCSF by TRAP staining based assay; assay type: functional; parameters: scale not given: the % may be the effect or the level left
Mus musculus [8] = experiment: Anti-osteoporosis activity in OVX-induced osteoporosis C57BL/6 mouse model assessed as increase in connectivity density in femur at 5 to 10 mg/kg, IG administered every 3 days for 8 weeks; assay type: functional, organism-based; details: dose 5-10 mg/kg
RAW264.7 [9] = experiment: Inhibition of LPS-induced NF-kappaB activation in mouse RAW264.7 cells expressing luciferase gene preincubated with compound for 30 mins followed by LPS-induction and measured after 6 hrs by luciferase reporter gene assay; assay type: cell-based; details: dose 20.0 µM, time 6.5 hrs
Mus musculus [10] = experiment: Anti-osteoporosis activity in OVX-induced osteoporosis C57BL/6 mouse model assessed as prevention of bone loss in femur at 5 to 10 mg/kg, IG administered every 3 days for 8 weeks by H and E staining based analysis; assay type: functional, organism-based; details: dose 5-10 mg/kg
Mus musculus [11] = experiment: Anti-osteoporosis activity in OVX-induced osteoporosis C57BL/6 mouse model assessed as downregulation of NFATc1 expression in bone at 5 to 10 mg/kg, IG administered every 3 days for 8 weeks by IHC analysis; assay type: functional, organism-based; details: dose 5-10 mg/kg
Mus musculus [12] = experiment: Anti-osteoporosis activity in OVX-induced osteoporosis C57BL/6 mouse model assessed as prevention of bone loss in femur at 5 to 10 mg/kg, IG administered every 3 days for 8 weeks; assay type: functional, organism-based; details: dose 5-10 mg/kg
Mus musculus [13] = experiment: Anti-osteoporosis activity in OVX-induced osteoporosis C57BL/6 mouse model assessed as prevention of bone loss in femur at 10 mg/kg, IG administered every 3 days for 8 weeks; assay type: functional, organism-based
BMMC [14] = experiment: Anti-osteoclastogenesis activity in RANKL-induced C57BL/6 mouse BMMC cells assessed as inhibition of Atp6v0d2 mRNA expression pretreated with compound for 4 hrs followed by RANKL-induction and measured after 24 hrs by RT-PCR analysis; assay type: functional, cell-based; details: dose 1-10 µM, time 28.0 hrs
RAW264.7 [15] = experiment: Inhibition of RANKL-induced NF-kappaB activation in mouse RAW264.7 cells expressing luciferase gene assessed as suppression of IkappaBalpha degradation at 1 to 10 uM preincubated with compound for 4 hrs followed by LPS-induction and measured after 6 hrs by Western blot analysis; assay type: cell-based; details: dose 1-10 µM, time 10.0 hrs
[16] = Toxicity in C57BL/6 mouse assessed as animal death at 5 to 10 mg/kg, IG administered every 3 days for 46 days; assay type: organism-based; details: in vivo, po, 1104 h, dose 5-10 mg/kg, time 46 day
BMMC [17] = experiment: Anti-osteoclastogenesis activity in C57BL/6 mouse BMMC cells assessed as reduction in RANKL-induced osteoclasts formation at 5 uM incubated for 4 days in presence of MCSF by TRAP staining based assay; assay type: functional; parameters: scale not given: the % may be the effect or the level left; details: time 4 day
Mus musculus [18] = experiment: Anti-osteoporosis activity in OVX-induced osteoporosis C57BL/6 mouse model assessed as downregulation of p65 expression in bone at 5 to 10 mg/kg, IG administered every 3 days for 8 weeks by IHC analysis; assay type: functional, organism-based; details: dose 5-10 mg/kg
[19] = biological target: Transcription factor p65 (Mus musculus) (UniProt Q04207); experiment: Binding affinity to NF-kappaB p65 in mouse RAW264.7 cells assessed as thermal stabilization at 10 uM at 37 to 57 degreeC incubated for 4 hrs by CETSA assay; assay type: cell-based
Transcription factor p65 (Mus musculus), sequence (Q04207 whole entry): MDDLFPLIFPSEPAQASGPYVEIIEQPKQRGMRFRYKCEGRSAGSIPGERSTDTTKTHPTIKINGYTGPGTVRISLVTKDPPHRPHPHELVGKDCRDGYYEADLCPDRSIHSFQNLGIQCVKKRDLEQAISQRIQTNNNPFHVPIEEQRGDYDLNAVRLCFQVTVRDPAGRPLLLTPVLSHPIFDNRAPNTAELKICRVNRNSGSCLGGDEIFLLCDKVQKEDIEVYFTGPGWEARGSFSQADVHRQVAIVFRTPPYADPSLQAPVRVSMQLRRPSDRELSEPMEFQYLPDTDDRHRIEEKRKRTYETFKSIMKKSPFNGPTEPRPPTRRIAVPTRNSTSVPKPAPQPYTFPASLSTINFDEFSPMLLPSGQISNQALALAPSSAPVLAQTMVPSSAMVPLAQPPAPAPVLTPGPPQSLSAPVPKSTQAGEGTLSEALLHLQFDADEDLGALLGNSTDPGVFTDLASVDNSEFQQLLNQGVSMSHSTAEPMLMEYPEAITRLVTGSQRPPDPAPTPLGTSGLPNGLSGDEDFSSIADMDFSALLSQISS

RAW264.7 [20] = experiment: Inhibition of RANKL-induced NF-kappaB activation in mouse RAW264.7 cells expressing luciferase gene assessed as reduction in p65 protein level in nucleus preincubated with compound for 4 hrs followed by LPS-induction and measured after 6 hrs by Western blot analysis; assay type: cell-based; details: dose 1-10 µM, time 10.0 hrs
RAW264.7 [21] = experiment: Downregulation of p65 expression in RANKL-induced mouse RAW264.7 cells expressing NFATc1 at 10 uM pretreated with compound for 4 hrs followed by RANKL-induction and measured after 24 hrs by Western blot analysis; assay type: functional, cell-based; details: time 28.0 hrs
Mus musculus [22] = experiment: Anti-osteoporosis activity in OVX-induced osteoporosis C57BL/6 mouse model assessed as increase in BV/TV in femur at 5 to 10 mg/kg, IG administered every 3 days for 8 weeks; assay type: functional, organism-based; details: dose 5-10 mg/kg
Transcription factor p65 = Transcription factor p65 (Mus musculus, UniProt Q04207); experiment: Binding affinity to NF-kappaB p65 in mouse RAW264.7 cells assessed as dissociation constant by SPR analysis
Transcription factor p65, sequence (Q04207 whole entry): as above

BMMC [23] = experiment: Anti-osteoclastogenesis activity in RANKL-induced C57BL/6 mouse BMMC cells assessed as inhibition of OSCAR mRNA expression pretreated with compound for 4 hrs followed by RANKL-induction and measured after 24 hrs by RT-PCR analysis; assay type: functional, cell-based; details: dose 1-10 µM, time 28.0 hrs
BMMC [24] = experiment: Anti-osteoclastogenesis activity in RANKL-induced C57BL/6 mouse BMMC cells assessed as suppression of NFATc1 expression level in nucleus at 1 to 10 uM pretreated with compound for 4 hrs followed by RANKL-induction and measured after 24 hrs by Western blot analysis; assay type: functional, cell-based; details: dose 1-10 µM, time 28.0 hrs

CC(=O)OCc1ccc2c(c1/C=C/C=C/C(=O)O)[C@H](C)C[C@H](C)C2
inhibition (RAW264.7 [1]): Active

Cc1cccc([C@H](C)C[C@H](C)CO)c1/C=C/C=C/C(=O)O
Activity (BMMC [2]): Non-Toxic
Activity [3]: Non-Toxic
Activity (BMMC [4]): Dose-Dependent Effect
inhibition (RAW264.7 [5]): Dose-Dependent Effect
Activity (BMMC [6]): Dose-Dependent Effect
Activity (BMMC [7]; time 4 day): 69.7%
Activity (Mus musculus [8]): Active
inhibition (RAW264.7 [9]): Dose-Dependent Effect
Activity (Mus musculus [10]): Active
Activity (Mus musculus [11]): Active
Activity (Mus musculus [12]): Active
Activity (Mus musculus [13]): Active
Activity (BMMC [14]): Dose-Dependent Effect
inhibition (RAW264.7 [15]): Active
Activity [16]: Non-Toxic
Activity (BMMC [17]): 49.2%
Activity (Mus musculus [18]): Active
Activity [19]: Active
inhibition (RAW264.7 [20]): Dose-Dependent Effect
Activity (RAW264.7 [21]): Active
Activity (Mus musculus [22]): Active
Kd (Transcription factor p65): 44.7 µM
Activity (BMMC [23]): Dose-Dependent Effect
Activity (BMMC [24]): Active

CO[C@H]1C=C(C)[C@H](/C=C/C=C/C(=O)O)[C@@H]2[C@@H]1C[C@@H](CO)C[C@H]2C
inhibition (RAW264.7 [9]): Dose-Dependent Effect

Cc1ccc2c(c1/C=C/C=C/C(=O)O)[C@H](C)C[C@H](C)C2
inhibition (RAW264.7 [1]): Active

CC(=O)OC[C@@H](C)C[C@@H](C)c1cccc(C)c1/C=C/C=C/C(=O)O
Activity (BMMC [7]; time 4.0 day): Active
inhibition (RAW264.7 [9]): Dose-Dependent Effect

C[C@@H]1C[C@@](C)(O)C[C@@H]2C=C[C@H](C)[C@H](/C=C/C=C/C(=O)O)[C@@H]12
inhibition (RAW264.7 [9]): Dose-Dependent Effect

CC(=O)C[C@@H](C)c1cccc(C)c1/C=C/C=C/C(=O)O
inhibition (RAW264.7 [9]): Dose-Dependent Effect

C[C@@H]1[C@@H](Cl)[C@H](O)[C@@H]2C[C@H](CO)C[C@H](C)[C@H]2[C@@H]1/C=C/C=C/C(=O)O
Activity (BMMC [7]; time 4.0 day): Active
inhibition (RAW264.7 [9]): Dose-Dependent Effect

CC(=O)OC[C@@H]1Cc2ccc(C)c(/C=C/C=C/C(=O)O)c2[C@H](C)C1
inhibition (RAW264.7 [1]): Active

C[C@@H]1C[C@@](C)(O)C[C@@H]2C=C[C@H](C)[C@H](/C=C/C(=O)O)[C@@H]12
inhibition (RAW264.7 [9]): Dose-Dependent Effect

C[C@H]1C[C@H]2[C@@H](O)[C@H](Cl)[C@@H](C)[C@@](O)(/C=C/C=C/C(=O)O)[C@@H]2[C@@H](C)C1
Activity (BMMC [7]; time 4.0 day): Active
inhibition (RAW264.7 [9]): Dose-Dependent Effect

CC1=C(/C=C/C=C/C(=O)O)[C@H]2[C@H](C=C1)C[C@H](C)C[C@@H]2C
inhibition (RAW264.7 [9]): Dose-Dependent Effect

C[C@@H]1C[C@@H]2[C@@H](C(=O)O)[C@H](C)[C@](O)(/C=C/C=C/C(=O)O)[C@H]2[C@H](C)C1
inhibition (RAW264.7 [9]): Dose-Dependent Effect

CC1=C(/C=C/C=C/C(=O)O)[C@@H]2[C@H](C[C@](C)(O)C[C@H]2C)[C@@H](O)[C@H]1O
inhibition (RAW264.7 [9]): Dose-Dependent Effect
